Results on 2 compounds are retold here after patent US7115599B2, “Sulfonamide-substituted pyrazolopyridine compounds” (Bayer Aktiengesellschaft, priority 2000, dated 2006).

This experiment relates to rabbit aorta rings. The experiment is described as follows: Vasorelaxant effect in vitro (phenylephrine-contracted rabbit aortic rings). The settings on record: Oryctolagus cuniculus; concentration reducing height of phenylephrine-induced contraction of rabbit aorta rings by 50%; 0.1% DMSO, 37° C. The method, then:
Rabbits are stunned by a blow to the back of the neck and are exsanguinated. The aorta is removed, freed of adherent tissue, divided into rings 1.5 mm wide and put singly under tension in 5 ml organ baths containing carbogen-gassed Krebs-Henseleit solution at 37° C. with the following composition (mM): NaCl: 119; KCl: 4.8; CaCl2×2H2O: 1; MgSO4×7H2O: 1.4; KH2PO4: 1.2; NaHCO3: 25; glucose: 10. The force of contraction is detected with Statham UC2 cells, amplified and digitized via A/D converters (DAS-1802 HC, Keithley Instruments Munich) and recorded in parallel on chart recorders. A contraction is generated by adding phenylephrine to the bath cumulatively in increasing concentration. After several control cycles, the substance to be investigated is investigated in each further run in increasing dosage in each case, and the height of the contraction is compared with the height of the contraction reached in the last preceding run. The concentration necessary to reduce the height of the control value by 50% (IC50) is calculated from this. The standard application volume is 5 μl, and the DMSO content in the bath solution corresponds to 0.1%.

A word on the IC50: it is the concentration needed to halve the response being measured. Low values mean greater potency, high ones weaker potency. In turn, `Nc1nc(-c2nn(Cc3ccccc3F)c3ncccc23)nc(Cl)c1N1CCCS1(=O)=O` [Example 1, 6-Chloro-5-(1,1-dioxido-2-isothiazolidinyl)-2-[1-(2-fluorobenzyl)-1H-pyrazolo[3,4-b]pyridin-3-yl]-4-pyrimidinediamine] came in with an IC50 of 290 nM.
In the case of `Nc1nc(-c2nn(Cc3ccccc3F)c3ncccc23)nc(N)c1N1CCCS1(=O)=O` [Example 3, 5-(1,1-Dioxido-2-isothiazolidinyl)-2-[1-(2-fluorobenzyl)-1H-pyrazolo[3,4-b]pyridin-3-yl]-4,6-pyrimidineamine] it was 350 nM.
